Source: patent US20240116998A1, “GLUCAGON-LIKE PEPTIDE-1 RECEPTOR ANTAGONISTS” (INDIANA UNIVERSITY RESEARCH AND TECHNOLOGY CORPORATION, priority 2021, published 2024)
≈ marks a conversion by molar mass, not a printed value. Non-standard residues stand in square brackets, D forms with d. Residues, ends and D or L forms follow the SMILES beside them. *: point of attachment. Palmitoyl = CCCCCCCCCCCCCCCC(=O)*; Aib = CC(C)(N)C(=O)O

assay: Solubility of peptides in buffer; type: physicochemical; settings: Table 3; 80 mM AmBicarb pH 7.7; unit not given

**Q.** With `CCCCCCCCCCCCCCCC(=O)NCCCC[C@H](NC(=O)[C@H](CO)NC(=O)[C@@H]1CCCN1C(=O)[C@@H]1CCCN1C(=O)[C@@H]1CCCN1C(=O)[C@H](C)NC(=O)CNC(=O)[C@H](CO)NC(=O)[C@H](CO)NC(=O)[C@@H]1CCCN1C(=O)CNC(=O)CNC(=O)[C@H](CCCNC(=N)N)NC(=O)[C@@H](NC(=O)[C@H](CC(C)C)NC(=O)[C@H](Cc1c[nH]c2ccccc12)NC(=O)[C@H](CCC(=O)O)NC(=O)[C@@H](NC(=O)[C@H](Cc1ccccc1)NC(=O)[C@H](CCC(=O)O)NC(=O)[C@H](CCCNC(=N)N)NC(=O)[C@@H](NC(=O)[C@H](C)NC(=O)[C@H](CCC(=O)O)NC(=O)[C@H](CCC(=O)O)NC(=O)[C@H](CCC(=O)O)NC(=O)[C@H](CC(C)C)NC(=O)[C@H](Cc1ccc(O)cc1)NC(=O)[C@H](CCCNC(=N)N)NC(=O)[C@H](CO)NC(=O)[C@@H](NC(=O)[C@@H](N)CC(=O)O)C(C)C)C(C)C)[C@@H](C)CC)C(C)C)C(N)=O` [SEQ ID NO: 75] (H-DVSRYLEEEAVREFIEWLVRGGPSSGAPPPSK(Palmitoyl)-NH2) as the compound, how does the “Solubility 80 mM AmBicarb pH 7.7” value read?
**A.** 18.5

**Q.** For `CCCCCCCCCCCCCCCC(=O)NCCCC[C@H](NC(=O)[C@H](CO)NC(=O)[C@@H]1CCCN1C(=O)[C@@H]1CCCN1C(=O)[C@@H]1CCCN1C(=O)[C@H](C)NC(=O)CNC(=O)[C@H](CO)NC(=O)[C@H](CO)NC(=O)[C@@H]1CCCN1C(=O)CNC(=O)CNC(=O)[C@H](CCCNC(=N)N)NC(=O)[C@@H](NC(=O)[C@H](CC(C)C)NC(=O)[C@H](Cc1c[nH]c2ccccc12)NC(=O)[C@H](C)NC(=O)[C@@H](NC(=O)[C@H](Cc1ccccc1)NC(=O)[C@H](CCC(=O)O)NC(=O)[C@H](CCCNC(=N)N)NC(=O)[C@@H](NC(=O)[C@H](C)NC(=O)[C@H](CCC(=O)O)NC(=O)[C@H](CCC(=O)O)NC(=O)[C@H](CCC(=O)O)NC(=O)[C@H](CC(C)C)NC(=O)[C@H](Cc1ccc(O)cc1)NC(=O)[C@H](CO)NC(=O)[C@H](CO)NC(=O)[C@@H](NC(=O)[C@@H](N)CC(=O)O)C(C)C)C(C)C)[C@@H](C)CC)C(C)C)C(N)=O` [SEQ ID NO: 71] (H-DVSSYLEEEAVREFIAWLVRGGPSSGAPPPSK(Palmitoyl)-NH2; N-terminus assumed), which “Solubility 80 mM AmBicarb pH 7.7” value is on record?
**A.** >20

**Q.** With `CCCCCCCCCCCCCCCC(=O)NCCCC[C@H](NC(=O)[C@H](CO)NC(=O)[C@@H]1CCCN1C(=O)[C@@H]1CCCN1C(=O)[C@@H]1CCCN1C(=O)[C@H](C)NC(=O)CNC(=O)[C@H](CO)NC(=O)[C@H](CO)NC(=O)[C@@H]1CCCN1C(=O)CNC(=O)CNC(=O)[C@H](CCCNC(=N)N)NC(=O)[C@@H](NC(=O)[C@H](CC(C)C)NC(=O)[C@H](Cc1c[nH]c2ccccc12)NC(=O)[C@H](CCC(=O)O)NC(=O)[C@@H](NC(=O)[C@H](Cc1ccccc1)NC(=O)[C@H](CCC(=O)O)NC(=O)[C@H](CCCNC(=N)N)NC(=O)[C@@H](NC(=O)[C@H](C)NC(=O)[C@H](CCC(=O)O)NC(=O)[C@H](CCC(=O)O)NC(=O)[C@H](CCC(=O)O)NC(=O)[C@H](CC(C)C)NC(=O)[C@H](Cc1ccc(O)cc1)NC(=O)[C@H](CO)NC(=O)[C@H](CO)NC(=O)[C@@H](NC(=O)[C@@H](N)CC(=O)O)C(C)C)C(C)C)[C@@H](C)CC)C(C)C)C(N)=O` [SEQ ID NO: 72] (H-DVSSYLEEEAVREFIEWLVRGGPSSGAPPPSK(Palmitoyl)-NH2; N-terminus assumed) as the compound, how does the “Solubility 80 mM AmBicarb pH 7.7” value read?
**A.** >20

same assay, conditions: pH 7.4

**Q.** For `CCCCCCCCCCCCCCCC(=O)NCCCC[C@H](NC(=O)[C@H](CO)NC(=O)[C@@H]1CCCN1C(=O)[C@@H]1CCCN1C(=O)[C@@H]1CCCN1C(=O)[C@H](C)NC(=O)CNC(=O)[C@H](CO)NC(=O)[C@H](CO)NC(=O)[C@@H]1CCCN1C(=O)CNC(=O)CNC(=O)[C@H](CCCCN)NC(=O)[C@@H](NC(=O)C(C)(C)NC(=O)[C@H](Cc1c[nH]c2ccccc12)NC(=O)[C@H](C)NC(=O)[C@@H](NC(=O)[C@H](Cc1ccccc1)NC(=O)[C@H](CCC(=O)O)NC(=O)[C@H](CCCNC(=N)N)NC(=O)[C@@H](NC(=O)[C@H](C)NC(=O)[C@H](CCC(N)=O)NC(=O)[C@H](CCC(=O)O)NC(=O)[C@H](CCC(=O)O)NC(=O)[C@H](CC(C)C)NC(=O)[C@H](Cc1ccc(O)cc1)NC(=O)[C@H](CO)NC(=O)[C@H](CO)NC(=O)[C@@H](NC(=O)[C@@H](N)CC(=O)O)C(C)C)C(C)C)[C@@H](C)CC)C(C)C)C(N)=O` [SEQ ID NO: 44] (H-DVSSYLEEQAVREFIAW[Aib]VKGGPSSGAPPPSK(Palmitoyl)-NH2; N-terminus assumed), which solubility is on record?
**A.** 100 µg/mL (≈ 27.7 µM)

**Q.** With `CCCCCCCCCCCCCCCC(=O)NCCCC[C@H](NC(=O)[C@H](CO)NC(=O)[C@@H]1CCCN1C(=O)[C@@H]1CCCN1C(=O)[C@@H]1CCCN1C(=O)[C@H](C)NC(=O)CNC(=O)[C@H](CO)NC(=O)[C@H](CO)NC(=O)[C@@H]1CCCN1C(=O)CNC(=O)CNC(=O)[C@H](CCCCN)NC(=O)[C@@H](NC(=O)[C@H](CC(C)C)NC(=O)[C@H](Cc1c[nH]c2ccccc12)NC(=O)[C@H](C)NC(=O)[C@@H](NC(=O)[C@H](Cc1ccccc1)NC(=O)[C@H](CCC(=O)O)NC(=O)[C@H](CCCNC(=N)N)NC(=O)[C@@H](NC(=O)[C@H](C)NC(=O)[C@H](CCC(N)=O)NC(=O)C(C)(C)NC(=O)[C@H](CCC(=O)O)NC(=O)[C@H](CC(C)C)NC(=O)[C@H](Cc1ccc(O)cc1)NC(=O)[C@H](CO)NC(=O)[C@H](CO)NC(=O)[C@@H](NC(=O)[C@@H](N)CC(=O)O)C(C)C)C(C)C)[C@@H](C)CC)C(C)C)C(N)=O` [SEQ ID NO: 84] (H-DVSSYLE[Aib]QAVREFIAWLVKGGPSSGAPPPSK(Palmitoyl)-NH2; N-terminus assumed) as the compound, how does the solubility read?
**A.** 200 µg/mL (≈ 55.6 µM)

**Q.** For `CCCCCCCCCCCCCCCC(=O)NCCCC[C@H](NC(=O)[C@H](CO)NC(=O)[C@@H]1CCCN1C(=O)[C@@H]1CCCN1C(=O)[C@@H]1CCCN1C(=O)[C@H](C)NC(=O)CNC(=O)[C@H](CO)NC(=O)[C@H](CO)NC(=O)[C@@H]1CCCN1C(=O)CNC(=O)CNC(=O)[C@H](CCCCN)NC(=O)[C@@H](NC(=O)[C@H](CC(C)C)NC(=O)[C@H](Cc1c[nH]c2ccccc12)NC(=O)[C@H](C)NC(=O)[C@@H](NC(=O)[C@H](Cc1ccccc1)NC(=O)[C@H](CCC(=O)O)NC(=O)[C@H](CCCNC(=N)N)NC(=O)[C@@H](NC(=O)C(C)(C)NC(=O)[C@H](CCC(N)=O)NC(=O)[C@H](CCC(=O)O)NC(=O)[C@H](CCC(=O)O)NC(=O)[C@H](CC(C)C)NC(=O)[C@H](Cc1ccc(O)cc1)NC(=O)[C@H](CO)NC(=O)[C@H](CO)NC(=O)[C@@H](NC(=O)[C@@H](N)CC(=O)O)C(C)C)C(C)C)[C@@H](C)CC)C(C)C)C(N)=O` [SEQ ID NO: 46] (H-DVSSYLEEQ[Aib]VREFIAWLVKGGPSSGAPPPSK(Palmitoyl)-NH2; N-terminus assumed), which solubility is on record?
**A.** 700 µg/mL (≈ 192 µM)

**Q.** Which solubility does the source give for `CCCCCCCCCCCCCCCC(=O)NCCCC[C@H](NC(=O)[C@H](CO)NC(=O)[C@@H]1CCCN1C(=O)[C@@H]1CCCN1C(=O)[C@@H]1CCCN1C(=O)[C@H](C)NC(=O)CNC(=O)[C@H](CO)NC(=O)[C@H](CO)NC(=O)[C@@H]1CCCN1C(=O)CNC(=O)CNC(=O)C(C)(C)NC(=O)[C@H](CCCCN)NC(=O)[C@H](CC(C)C)NC(=O)[C@H](Cc1c[nH]c2ccccc12)NC(=O)[C@H](C)NC(=O)[C@@H](NC(=O)[C@H](Cc1ccccc1)NC(=O)[C@H](CCC(=O)O)NC(=O)[C@H](CCCNC(=N)N)NC(=O)[C@@H](NC(=O)[C@H](C)NC(=O)[C@H](CCC(N)=O)NC(=O)[C@H](CCC(=O)O)NC(=O)[C@H](CCC(=O)O)NC(=O)[C@H](CC(C)C)NC(=O)[C@H](Cc1ccc(O)cc1)NC(=O)[C@H](CO)NC(=O)[C@H](CO)NC(=O)[C@@H](NC(=O)[C@@H](N)CC(=O)O)C(C)C)C(C)C)[C@@H](C)CC)C(N)=O` [SEQ ID NO: 43] here?
**A.** 200 µg/mL (≈ 55.2 µM)

**Q.** Which solubility does the source give for `CCCCCCCCCCCCCCCC(=O)NCCCC[C@H](NC(=O)[C@H](CO)NC(=O)[C@@H]1CCCN1C(=O)[C@@H]1CCCN1C(=O)[C@@H]1CCCN1C(=O)[C@H](C)NC(=O)CNC(=O)[C@H](CO)NC(=O)[C@H](CO)NC(=O)[C@@H]1CCCN1C(=O)CNC(=O)CNC(=O)[C@H](CCCCN)NC(=O)C(C)(C)NC(=O)[C@H](CC(C)C)NC(=O)[C@H](Cc1c[nH]c2ccccc12)NC(=O)[C@H](C)NC(=O)[C@@H](NC(=O)[C@H](Cc1ccccc1)NC(=O)[C@H](CCC(=O)O)NC(=O)[C@H](CCCNC(=N)N)NC(=O)[C@@H](NC(=O)[C@H](C)NC(=O)[C@H](CCC(N)=O)NC(=O)[C@H](CCC(=O)O)NC(=O)[C@H](CCC(=O)O)NC(=O)[C@H](CC(C)C)NC(=O)[C@H](Cc1ccc(O)cc1)NC(=O)[C@H](CO)NC(=O)[C@H](CO)NC(=O)[C@@H](NC(=O)[C@@H](N)CC(=O)O)C(C)C)C(C)C)[C@@H](C)CC)C(N)=O` [SEQ ID NO: 81] (H-DVSSYLEEQAVREFIAWL[Aib]KGGPSSGAPPPSK(Palmitoyl)-NH2; N-terminus assumed) here?
**A.** 1600 µg/mL (≈ 441 µM)

**Q.** For `CCCCCCCCCCCCCCCC(=O)NCCCC[C@H](NC(=O)[C@H](CO)NC(=O)[C@@H]1CCCN1C(=O)[C@@H]1CCCN1C(=O)[C@@H]1CCCN1C(=O)[C@H](C)NC(=O)CNC(=O)[C@H](CO)NC(=O)[C@H](CO)NC(=O)[C@@H]1CCCN1C(=O)CNC(=O)CNC(=O)C(C)(C)NC(=O)[C@@H](NC(=O)[C@H](CCCCN)NC(=O)[C@H](Cc1c[nH]c2ccccc12)NC(=O)[C@H](C)NC(=O)[C@@H](NC(=O)[C@H](Cc1ccccc1)NC(=O)[C@H](CCC(=O)O)NC(=O)[C@H](CCCNC(=N)N)NC(=O)[C@@H](NC(=O)[C@H](C)NC(=O)[C@H](CCC(N)=O)NC(=O)[C@H](CCC(=O)O)NC(=O)[C@H](CCC(=O)O)NC(=O)[C@H](CC(C)C)NC(=O)[C@H](Cc1ccc(O)cc1)NC(=O)[C@H](CO)NC(=O)[C@H](CO)NC(=O)[C@@H](NC(=O)[C@@H](N)CC(=O)O)C(C)C)C(C)C)[C@@H](C)CC)C(C)C)C(N)=O` [SEQ ID NO: 82], which solubility is on record?
**A.** 100 µg/mL (≈ 27.7 µM)

**Q.** For `CCCCCCCCCCCCCCCC(=O)NCCCC[C@H](NC(=O)[C@H](CO)NC(=O)[C@@H]1CCCN1C(=O)[C@@H]1CCCN1C(=O)[C@@H]1CCCN1C(=O)[C@H](C)NC(=O)CNC(=O)[C@H](CO)NC(=O)[C@H](CO)NC(=O)[C@@H]1CCCN1C(=O)CNC(=O)CNC(=O)[C@H](CCCCN)NC(=O)[C@@H](NC(=O)[C@H](CC(C)C)NC(=O)[C@H](Cc1c[nH]c2ccccc12)NC(=O)C(C)(C)NC(=O)[C@@H](NC(=O)[C@H](Cc1ccccc1)NC(=O)[C@H](CCC(=O)O)NC(=O)[C@H](CCCNC(=N)N)NC(=O)[C@@H](NC(=O)[C@H](C)NC(=O)[C@H](CCC(N)=O)NC(=O)[C@H](CCC(=O)O)NC(=O)[C@H](CCC(=O)O)NC(=O)[C@H](CC(C)C)NC(=O)[C@H](Cc1ccc(O)cc1)NC(=O)[C@H](CO)NC(=O)[C@H](CO)NC(=O)[C@@H](NC(=O)[C@@H](N)CC(=O)O)C(C)C)C(C)C)[C@@H](C)CC)C(C)C)C(N)=O` [SEQ ID NO: 83] (H-DVSSYLEEQAVREFI[Aib]WLVKGGPSSGAPPPSK(Palmitoyl)-NH2; N-terminus assumed), which solubility is on record?
**A.** 300 µg/mL (≈ 82.1 µM)
